Source: article PMC8333062, “Chemical tools for epichaperome-mediated interactome dysfunctions of the central nervous system” (Nature Communications, 2021)

Tests used:
all the P450 enzymes = experiment: Cytochrome P450 profiling, 1-aminobenzotriazole; assay type: in vitro ADME, human; conditions: for % PU-HZ151 remaining: ABT
Procedure: To identify cytochrome P450 enzymes responsible for PU-HZ151’s metabolism in human liver microsomes the following procedure was followed. Phosphate buffer (100 mM, pH 7.4) was prepared monthly and stored at 4 °C. Frozen stock solutions of human liver microsomes (Life Technologies; Cat# HMMCPL) were used once after thawing and were not refrozen. NADPH stock solution (50 mM) in distilled water was prepared fresh daily. […] The stock solutions of these P450 inhibitors were prepared in DMSO. […] The concentration of the chemical inhibitors used in the assay were furafylline (10 μM), tranylcypromine (2 μM), ketoconazole (1 μM), troleandomycin (20 μM), orphenadrine (50 μM), montelukast (3 μM), sulfaphenazole (10 μM), benzylnirvanol (1 μM), quinidine (1 μM), and 1-aminobenzotriazole (1 mM) for all the P450 enzymes. Timing of the reactions was started following the addition of NADPH/magnesium chloride mix and PU-HZ151. Time-dependent chemical inhibitors (furafylline, troleandomycin, orphenadrine, and 1-aminobenzotriazole) were preincubated with human microsomes in the presence of NADPH and magnesium chloride for 15 min before the addition of PU-HZ151 and timing of reactions was started after addition of PU-HZ151. […] Following brief vortexing and centrifugation, a 200 µL aliquot of the supernatant was transferred to a tube, and 10 µL of haloperidol (1 µg mL^−1) as internal standard was added. Following brief vortexing and centrifugation, 50 µL of supernatant was added to a 96-well plate for subsequent LC-MS/MS analysis. PU-HZ151 was similarly tested as above in the absence of CYP inhibitors for comparative purposes. All samples were assayed in duplicate. […] This was similarly performed for incubations of PU-HZ151 performed in the absence of CYP inhibitor.

[1] = target: T1, 70 key receptor, enzyme, and ion channel proteins (Homo sapiens, UniProt P50406); experiment: General side effect profile (SEP) II diversity panel; assay type: binding; conditions: 1.0E-5 M
T1 construct: purchased Caliper Life Sciences (now PerkinElmer), NOVASCREEN General SEP II
T1 sequence (P50406 whole entry): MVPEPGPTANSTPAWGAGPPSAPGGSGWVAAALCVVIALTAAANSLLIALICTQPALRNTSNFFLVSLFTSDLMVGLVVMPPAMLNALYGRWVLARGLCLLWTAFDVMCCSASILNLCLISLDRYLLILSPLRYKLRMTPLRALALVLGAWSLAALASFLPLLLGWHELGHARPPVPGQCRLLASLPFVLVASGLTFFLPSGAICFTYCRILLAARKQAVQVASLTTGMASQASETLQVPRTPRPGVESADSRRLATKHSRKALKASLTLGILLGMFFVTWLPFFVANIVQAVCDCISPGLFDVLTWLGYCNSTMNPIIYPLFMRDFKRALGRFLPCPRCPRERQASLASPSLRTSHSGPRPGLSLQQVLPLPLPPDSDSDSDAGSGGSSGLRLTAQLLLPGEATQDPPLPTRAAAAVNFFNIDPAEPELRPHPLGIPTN

[2] = target: T2, hERG potassium channel (IKr) (Homo sapiens, UniProt Q12809); experiment: as above; assay type: binding; conditions: human; 1.0E-5 M; read-out: Percent Inhibition: Potassium Channel, I [Kr] (hERG) (h)
T2 construct: purchased Caliper Life Sciences (now PerkinElmer), NOVASCREEN General SEP II
T2 sequence (Q12809 whole entry): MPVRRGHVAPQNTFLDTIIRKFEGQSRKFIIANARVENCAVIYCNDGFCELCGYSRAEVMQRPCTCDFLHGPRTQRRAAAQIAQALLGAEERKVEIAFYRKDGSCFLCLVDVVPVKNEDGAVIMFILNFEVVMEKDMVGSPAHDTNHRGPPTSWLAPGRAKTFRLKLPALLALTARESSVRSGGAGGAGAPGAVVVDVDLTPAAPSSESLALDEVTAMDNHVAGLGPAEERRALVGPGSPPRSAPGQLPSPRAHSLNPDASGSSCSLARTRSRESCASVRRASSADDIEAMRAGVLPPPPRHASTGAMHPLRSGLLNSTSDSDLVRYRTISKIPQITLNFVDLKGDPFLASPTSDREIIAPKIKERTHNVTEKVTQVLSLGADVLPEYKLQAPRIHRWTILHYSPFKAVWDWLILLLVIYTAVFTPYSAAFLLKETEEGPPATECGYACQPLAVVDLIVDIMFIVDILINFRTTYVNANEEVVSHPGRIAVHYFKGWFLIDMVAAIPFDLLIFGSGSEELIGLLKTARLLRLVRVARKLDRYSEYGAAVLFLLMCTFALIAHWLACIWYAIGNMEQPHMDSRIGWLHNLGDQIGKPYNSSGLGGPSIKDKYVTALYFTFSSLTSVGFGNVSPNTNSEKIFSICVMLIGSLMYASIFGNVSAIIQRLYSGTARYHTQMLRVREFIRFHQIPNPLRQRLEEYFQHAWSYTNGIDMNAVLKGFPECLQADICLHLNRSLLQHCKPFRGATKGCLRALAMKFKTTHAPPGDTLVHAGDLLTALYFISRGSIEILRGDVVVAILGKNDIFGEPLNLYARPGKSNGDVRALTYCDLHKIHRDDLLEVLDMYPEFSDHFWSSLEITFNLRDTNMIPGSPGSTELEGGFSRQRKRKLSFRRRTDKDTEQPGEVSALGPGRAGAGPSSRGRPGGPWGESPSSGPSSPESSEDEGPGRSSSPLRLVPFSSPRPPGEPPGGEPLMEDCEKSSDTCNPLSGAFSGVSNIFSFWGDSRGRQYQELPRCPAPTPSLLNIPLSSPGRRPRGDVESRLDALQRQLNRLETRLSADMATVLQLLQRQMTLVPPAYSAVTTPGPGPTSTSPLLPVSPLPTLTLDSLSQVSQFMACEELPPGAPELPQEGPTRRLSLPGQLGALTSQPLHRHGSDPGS

[3] = target: T3, 70 key receptor, enzyme, and ion channel proteins (Homo sapiens, UniProt P47898); experiment: as above; assay type: binding; conditions: 1.0E-5 M
T3 construct: purchased Caliper Life Sciences (now PerkinElmer), NOVASCREEN General SEP II
T3 sequence (P47898 whole entry): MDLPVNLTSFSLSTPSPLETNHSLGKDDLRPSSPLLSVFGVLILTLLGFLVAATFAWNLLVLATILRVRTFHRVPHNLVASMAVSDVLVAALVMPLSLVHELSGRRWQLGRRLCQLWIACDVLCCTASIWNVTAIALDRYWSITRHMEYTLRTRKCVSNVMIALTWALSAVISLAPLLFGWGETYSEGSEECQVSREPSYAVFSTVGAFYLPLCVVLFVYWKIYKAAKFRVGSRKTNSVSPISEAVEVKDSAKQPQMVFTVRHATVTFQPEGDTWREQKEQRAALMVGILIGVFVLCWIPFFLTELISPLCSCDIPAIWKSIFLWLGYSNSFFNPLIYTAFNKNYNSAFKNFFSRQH

[4] = target: T4, 70 key receptor, enzyme, and ion channel proteins (Homo sapiens, UniProt P20309); experiment: as above; assay type: binding
T4 construct: purchased Caliper Life Sciences (now PerkinElmer), NOVASCREEN General SEP II

[5] = target: T5, 70 key receptor, enzyme, and ion channel proteins (Homo sapiens, UniProt Q99808); experiment: as above; assay type: binding; conditions: 1.0E-5 M
T5 construct: purchased Caliper Life Sciences (now PerkinElmer), NOVASCREEN General SEP II
T5 sequence (Q99808 whole entry): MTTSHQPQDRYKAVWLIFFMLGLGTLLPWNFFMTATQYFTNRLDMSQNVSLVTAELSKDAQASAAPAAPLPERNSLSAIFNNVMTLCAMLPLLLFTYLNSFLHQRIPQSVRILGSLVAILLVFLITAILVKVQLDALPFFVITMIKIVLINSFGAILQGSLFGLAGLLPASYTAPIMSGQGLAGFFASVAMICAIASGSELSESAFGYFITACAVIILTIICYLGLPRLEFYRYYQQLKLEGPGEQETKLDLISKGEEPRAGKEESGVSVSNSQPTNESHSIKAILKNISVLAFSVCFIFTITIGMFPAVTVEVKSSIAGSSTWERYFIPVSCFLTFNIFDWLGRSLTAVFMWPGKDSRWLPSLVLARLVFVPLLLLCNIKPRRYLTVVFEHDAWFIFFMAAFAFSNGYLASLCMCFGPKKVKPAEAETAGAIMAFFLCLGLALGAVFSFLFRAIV

[6] = target: 70 key receptor, enzyme, and ion channel proteins (Homo sapiens, UniProt P11229); experiment: as above; assay type: binding
Chain of 70 key receptor, enzyme, and ion channel proteins (Homo sapiens, UniProt P11229) (P11229 whole entry): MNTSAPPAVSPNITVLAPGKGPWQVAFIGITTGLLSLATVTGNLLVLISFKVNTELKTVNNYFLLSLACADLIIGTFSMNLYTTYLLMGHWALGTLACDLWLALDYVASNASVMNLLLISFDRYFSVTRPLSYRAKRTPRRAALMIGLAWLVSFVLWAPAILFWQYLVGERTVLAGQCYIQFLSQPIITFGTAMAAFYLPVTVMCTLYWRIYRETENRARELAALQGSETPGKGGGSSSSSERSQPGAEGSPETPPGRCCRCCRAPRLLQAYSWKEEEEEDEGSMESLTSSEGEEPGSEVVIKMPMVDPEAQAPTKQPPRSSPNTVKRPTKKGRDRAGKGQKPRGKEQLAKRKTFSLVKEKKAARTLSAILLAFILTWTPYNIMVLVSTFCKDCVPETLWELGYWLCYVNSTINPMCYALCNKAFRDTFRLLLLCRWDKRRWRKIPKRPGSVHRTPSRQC

[7] = target: T6, 70 key receptor, enzyme, and ion channel proteins (Homo sapiens, UniProt P21731); experiment: as above; assay type: binding; conditions: 1.0E-5 M
T6 construct: purchased Caliper Life Sciences (now PerkinElmer), NOVASCREEN General SEP II

[8] = target: T7, 70 key receptor, enzyme, and ion channel proteins (Homo sapiens, UniProt P21728); experiment: as above; assay type: binding; conditions: 1.0E-5 M
T7 construct: purchased Caliper Life Sciences (now PerkinElmer), NOVASCREEN General SEP II
T7 sequence (P21728 whole entry): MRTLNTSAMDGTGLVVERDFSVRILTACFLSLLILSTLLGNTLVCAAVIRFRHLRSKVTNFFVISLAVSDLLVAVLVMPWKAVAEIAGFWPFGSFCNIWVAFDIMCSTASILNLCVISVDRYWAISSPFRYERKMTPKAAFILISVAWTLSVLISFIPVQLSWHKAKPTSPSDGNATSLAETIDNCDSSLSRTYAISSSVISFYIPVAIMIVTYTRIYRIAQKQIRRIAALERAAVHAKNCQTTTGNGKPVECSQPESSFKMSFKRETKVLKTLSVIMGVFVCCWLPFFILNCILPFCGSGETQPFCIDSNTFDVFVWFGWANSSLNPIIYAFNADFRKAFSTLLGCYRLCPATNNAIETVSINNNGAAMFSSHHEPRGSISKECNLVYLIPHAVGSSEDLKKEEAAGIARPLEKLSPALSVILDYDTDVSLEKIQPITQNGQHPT

[9] = target: T8, 70 key receptor, enzyme, and ion channel proteins (Homo sapiens, UniProt P17252); experiment: as above; assay type: binding; conditions: 1.0E-5 M
T8 construct: purchased Caliper Life Sciences (now PerkinElmer), NOVASCREEN General SEP II

[10] = target: T9, muscarinic receptor M5 (printed "MS") (Homo sapiens, UniProt P08912); experiment: as above; assay type: binding; conditions: human; 1.0E-5 M; read-out: Percent Inhibition: Muscarinic, MS (h)
T9 construct: purchased Caliper Life Sciences (now PerkinElmer), NOVASCREEN General SEP II
T9 sequence (P08912 whole entry): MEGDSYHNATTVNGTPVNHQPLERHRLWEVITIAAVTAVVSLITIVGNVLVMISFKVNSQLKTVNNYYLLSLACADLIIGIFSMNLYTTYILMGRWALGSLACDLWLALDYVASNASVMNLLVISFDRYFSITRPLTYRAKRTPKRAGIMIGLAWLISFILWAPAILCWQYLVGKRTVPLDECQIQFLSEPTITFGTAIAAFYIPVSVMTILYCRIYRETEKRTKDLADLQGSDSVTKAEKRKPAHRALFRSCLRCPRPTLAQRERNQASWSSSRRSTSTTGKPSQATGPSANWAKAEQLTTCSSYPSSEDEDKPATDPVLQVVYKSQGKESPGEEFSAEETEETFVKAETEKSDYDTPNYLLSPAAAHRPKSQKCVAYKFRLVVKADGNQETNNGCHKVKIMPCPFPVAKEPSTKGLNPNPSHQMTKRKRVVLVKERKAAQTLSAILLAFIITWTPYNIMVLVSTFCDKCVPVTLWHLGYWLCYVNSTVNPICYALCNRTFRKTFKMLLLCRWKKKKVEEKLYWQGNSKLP

[11] = target: 70 key receptor, enzyme, and ion channel proteins (Homo sapiens, UniProt P41143); experiment: as above; assay type: binding
[12] = target: T10, 70 key receptor, enzyme, and ion channel proteins (Homo sapiens, UniProt P08173); experiment: as above; assay type: binding; conditions: 1.0E-5 M
T10 construct: purchased Caliper Life Sciences (now PerkinElmer), NOVASCREEN General SEP II
T10 sequence (P08173 whole entry): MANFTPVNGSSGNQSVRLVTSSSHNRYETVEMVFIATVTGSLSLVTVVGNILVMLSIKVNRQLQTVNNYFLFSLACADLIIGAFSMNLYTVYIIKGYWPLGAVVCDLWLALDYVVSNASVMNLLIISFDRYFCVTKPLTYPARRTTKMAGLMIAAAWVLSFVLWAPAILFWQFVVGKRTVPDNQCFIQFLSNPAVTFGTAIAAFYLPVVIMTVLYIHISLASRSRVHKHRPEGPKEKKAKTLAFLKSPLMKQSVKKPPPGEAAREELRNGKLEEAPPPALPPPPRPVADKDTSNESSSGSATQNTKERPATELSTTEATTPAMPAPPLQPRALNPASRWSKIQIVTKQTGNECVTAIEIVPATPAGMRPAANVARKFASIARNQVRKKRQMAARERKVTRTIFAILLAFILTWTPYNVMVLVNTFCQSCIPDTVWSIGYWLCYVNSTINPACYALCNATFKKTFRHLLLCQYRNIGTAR

[13] = Metabolic stability in liver microsomes; assay type: in vitro ADME, human; conditions: No inhibitor
Procedure: All samples were assayed in duplicate.
To identify cytochrome P450 enzymes responsible for PU-HZ151’s metabolism in human liver microsomes the following procedure was followed. Phosphate buffer (100 mM, pH 7.4) was prepared monthly and stored at 4 °C. Frozen stock solutions of human liver microsomes (Life Technologies; Cat# HMMCPL) were used once after thawing and were not refrozen. NADPH stock solution (50 mM) in distilled water was prepared fresh daily. Stock solutions of PU-HZ151 (1 mM in DMSO) and CYP inhibitors, furafylline (10 mM) for CYP1A2, tranylcypromine (2 mM) for CYP2A6, ketoconazole (1 mM) for CYP3A, troleandomycin (20 mM) for CYP3A4, orphenadrine (50 mM) for CYP2B6, montelukast (3 mM) for CYP2C8, sulfaphenazole (10 mM) for CYP2C9, benzylnirvanol (1 mM) for CYP2C19, quinidine (1 mM) for CYP2D6, and 1-aminobenzotriazole (1 mM) for all the P450 enzymes were stored at −20 °C. The stock solutions of these P450 inhibitors were prepared in DMSO. General procedure: PU-HZ151 (1 µM) was incubated with human liver microsomes (0.5 mg protein mL^−1), 2.5 mM NADPH, 3.3 mM magnesium chloride, and chemical inhibitors (various concentrations) in phosphate buffer (100 mM, pH 7.4) at 37 °C for up to 60 min. […] The concentration of the chemical inhibitors used in the assay were furafylline (10 μM), tranylcypromine (2 μM), ketoconazole (1 μM), troleandomycin (20 μM), orphenadrine (50 μM), montelukast (3 μM), sulfaphenazole (10 μM), benzylnirvanol (1 μM), quinidine (1 μM), and 1-aminobenzotriazole (1 mM) for all the P450 enzymes. Timing of the reactions was started following the addition of NADPH/magnesium chloride mix and PU-HZ151. Time-dependent chemical inhibitors (furafylline, troleandomycin, orphenadrine, and 1-aminobenzotriazole) were preincubated with human microsomes in the presence of NADPH and magnesium chloride for 15 min before the addition of PU-HZ151 and timing of reactions was started after addition of PU-HZ151. […]

For `CC(C)(C)CNCCn1c(Sc2cc3c(cc2I)OCO3)nc2c(N)ncnc21` [Compound 85], the “inhibition of PU-HZ151 metabolism” value (all the P450 enzymes; 1-aminobenzotriazole) was 75%, the “% PU-HZ151 remaining” value (all the P450 enzymes; 15 min) was 90.5% and the “% PU-HZ151 remaining” value (all the P450 enzymes; 30 min) was 83.9%. For the same molecule, the “% PU-HZ151 remaining” value (all the P450 enzymes; 60 min) was 79.6%, the “Percent Inhibition: Serotonin, 5HT6 (h)” value [1] was 17.73% and the inhibition at 10 µM [2] was -18%. The “Percent Inhibition: Serotonin, 5HT5A (h)” value [3] was 11.09%, the “Percent Inhibition: Muscarinic, M3 (h)” value [4] was 50.76% and the “Percent Inhibition: Adenosine Transporter (h)” value [5] was -3.54%. The “Percent Inhibition: Muscarinic, Ml (hr)” value [6] was 26.84%, the “Percent Inhibition: Thromboxane AZ (h)” value [7] was 20.84% and the “Percent Inhibition: Dopamine, Dl (h)” value [8] was 8.03%. The “Percent Inhibition: Kinase, Protein, PKCa (h)” value [9] was 11.20%, the inhibition at 10 µM [10] was 69.9% and the “Percent Inhibition: Opioid, Delta 2 (h)” value [11] was 20.37%. For the same molecule, the “Percent Inhibition: Muscarinic, M4 (h)” value [12] was 27.60%, the “% PU-HZ151 remaining” value ([13]; 15 min) was 52.7% and the “% PU-HZ151 remaining” value ([13]; 30 min) was 34.7%. The “% PU-HZ151 remaining” value ([13]; 60 min) was 17.2%.
